What all share (format): cell-based
For one assay, the system named is 769-P. The experiment in a line: Cell viability panel, ATPlite 1Step. As to conditions: Homo sapiens, Renal cell carcinoma, 72 h exposure, read-out: Compound EC50. The essentials:
(§1)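 Read-out: ATPlite 1Step luminescence after 72 h at 0.04-32 μM (8 points, 200-6400 cells/well), or CyQUANT Direct after 48 h at 37° C. with 0.04-1 μM in RPMI 1640/10% FBS. CyQUANT data DMSO-normalized; EC50 computed relative to time-zero and growth control.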

In the next assay the test system is A-172. The experiment in a line: Cell viability panel, ATPlite 1Step. To be noted: Homo sapiens, Glioblastoma, 72 h exposure, read-out: Compound EC50. The essentials:
as §1

The subject of another assay is A-549. The assay can be described thus: Cell viability panel, ATPlite 1Step. As to conditions: Homo sapiens, A549, Lung adenocarcinoma, 72 h exposure, read-out: Compound EC50. The method in brief: as §1
In a further assay the test system is A-704. The assay can be described thus: Cell viability panel, ATPlite 1Step. To be noted: Homo sapiens, A704, Renal cell carcinoma, 72 h exposure, read-out: Compound EC50. The essentials: as §1
A further assay relates to AsPC-1. The experiment in a line: Cell viability panel, ATPlite 1Step. As to conditions: Homo sapiens, ASPC1, Pancreatic ductal adenocarcinoma, 72 h exposure, read-out: Compound EC50. The essentials:
as §1

The test system of another assay is BT-549. The assay can be described thus: Cell viability panel, ATPlite 1Step. As to conditions: Homo sapiens, Invasive ductal carcinoma, 72 h exposure, read-out: Compound EC50. The essentials: as §1
Another assay has as its system CCF-STTG1. The assay can be described thus: Cell viability panel, ATPlite 1Step. To be noted: Homo sapiens, Astrocytoma, 72 h exposure, read-out: Compound EC50. The essentials:
as §1

For a further assay, the system named is CCRF-CEM. The experiment in a line: Cell viability panel, ATPlite 1Step. To be noted: Homo sapiens, T acute lymphoblastic leukemia, 72 h exposure, read-out: Compound EC50. The essentials: as §1
The next assay has as its system DB. The experiment in a line: Cell viability panel, ATPlite 1Step. As to conditions: Homo sapiens, Diffuse large B-cell lymphoma, 72 h exposure, read-out: Compound EC50. The essentials: as §1
A further assay concerns Jurkat E6.1. The assay can be described thus: Cell viability panel, ATPlite 1Step. As to conditions: Homo sapiens, T acute lymphoblastic leukemia, 72 h exposure, read-out: Compound EC50. The method in brief: as §1
For another assay, the system named is LS411N. The experiment in a line: Cell viability panel, ATPlite 1Step. To be noted: Homo sapiens, LS-411N, Cecum adenocarcinoma, 72 h exposure, read-out: Compound EC50. The method in brief: as §1
Another assay deals with LoVo. The experiment in a line: Cell viability panel, ATPlite 1Step. As to conditions: Homo sapiens, Colon adenocarcinoma, 72 h exposure, read-out: Compound EC50. The essentials:
as §1

The test system of a further assay is MeWo. The experiment in a line: Cell viability panel, ATPlite 1Step. As to conditions: Homo sapiens, Melanoma, 72 h exposure, read-out: Compound EC50. The method in brief: as §1
The next assay has as its system NCI-H661. The experiment in a line: Cell viability panel, ATPlite 1Step. To be noted: Homo sapiens, Large cell lung carcinoma, 72 h exposure, read-out: Compound EC50. The essentials: as §1
In a further assay the test system is NCI-H82. The experiment in a line: Cell viability panel, ATPlite 1Step. To be noted: Homo sapiens, Small cell lung carcinoma, 72 h exposure, read-out: Compound EC50. The method in brief:
as §1

A further assay concerns RT4. The experiment in a line: Cell viability panel, ATPlite 1Step. As to conditions: Homo sapiens, RT-4, Bladder carcinoma, 72 h exposure, read-out: Compound EC50. The method in brief: as §1
In another assay the test system is SHP-77. The assay can be described thus: Cell viability panel, ATPlite 1Step. To be noted: Homo sapiens, SHP77, Small cell lung carcinoma, 72 h exposure, read-out: Compound EC50. The essentials: as §1
Another assay relates to SK-N-AS. The experiment in a line: Cell viability panel, ATPlite 1Step. To be noted: Homo sapiens, Neuroblastoma, 72 h exposure, read-out: Compound EC50. The method in brief:
as §1

For a further assay, the system named is SK-N-FI. The experiment in a line: Cell viability panel, ATPlite 1Step. As to conditions: Homo sapiens, Neuroblastoma, 72 h exposure, read-out: Compound EC50. The essentials:
as §1

A further assay has as its system SNU-5. The experiment in a line: Cell viability panel, ATPlite 1Step. To be noted: Homo sapiens, Gastric carcinoma, 72 h exposure, read-out: Compound EC50. The essentials: as §1
A further assay concerns SW626. The experiment in a line: Cell viability panel, ATPlite 1Step. To be noted: Homo sapiens, Colon adenocarcinoma, 72 h exposure, read-out: Compound EC50. The method in brief: as §1
The test system of a further assay is SW900. The experiment in a line: Cell viability panel, ATPlite 1Step. As to conditions: Homo sapiens, Squamous cell lung carcinoma, 72 h exposure, read-out: Compound EC50. The essentials:
as §1

The next assay concerns SW982. The experiment in a line: Cell viability panel, ATPlite 1Step. To be noted: Homo sapiens, Biphasic synovial sarcoma, 72 h exposure, read-out: Compound EC50. The essentials:
as §1

The test system of the next assay is U-118 MG. The assay can be described thus: Cell viability panel, ATPlite 1Step. As to conditions: Homo sapiens, Astrocytoma, 72 h exposure, read-out: Compound EC50. The method in brief: as §1
The next assay deals with U-87 MG. The experiment in a line: Cell viability panel, ATPlite 1Step. To be noted: Homo sapiens, Glioblastoma, 72 h exposure, read-out: Compound EC50. The essentials: as §1
The next assay concerns HS-578T. The experiment in a line: NCI60 screen cytotoxicity. To be noted: Homo sapiens, Breast cancer, read-out: Compound B1 EC50.
The test system of a further assay is KM-12. The assay can be described thus: NCI60 screen cytotoxicity. To be noted: Homo sapiens, KM12, Colon cancer, read-out: Compound B1 EC50.
A further assay concerns SN12C. The experiment in a line: NCI60 screen cytotoxicity. To be noted: Homo sapiens, Renal cancer, read-out: Compound B1 EC50.
A further assay concerns MALME-3M. The experiment in a line: NCI60 screen cytotoxicity. To be noted: Homo sapiens, Melanoma, read-out: Compound B1 EC50.
The subject of the next assay is M14. The experiment in a line: NCI60 screen cytotoxicity. To be noted: Homo sapiens, Melanoma, read-out: Compound B1 EC50.
The next assay relates to MDA-MB-435. The assay can be described thus: NCI60 screen cytotoxicity. As to conditions: Homo sapiens, Melanoma, read-out: Compound B1 EC50.

As to `CN(C)CCCS(=O)(=O)N1C/C(=C\c2ccc(C#N)cc2)C(=O)/C(=C/c2ccc(C#N)cc2)C1` [Compound AA], the EC50 in the assay on 769-P is below 300 nM; in the assay with A-172, below 300 nM; with A-549, at least 1000 nM; with A-704, 300 to 1000 nM; in the assay on AsPC-1, 300 to 1000 nM; in the assay on BT-549 it was below 300 nM. Further, the EC50 in the assay on CCF-STTG1 was below 300 nM; in the assay with CCRF-CEM, below 300 nM; with DB, below 300 nM; in the assay on Jurkat E6.1 it was below 300 nM; in the assay on LS411N it was 300 to 1000 nM; in the assay with LoVo, below 300 nM. In addition, the EC50 in the assay with MeWo was 300 to 1000 nM; in the assay with NCI-H661, 300 to 1000 nM; with NCI-H82, below 300 nM; in the assay on RT4, 300 to 1000 nM; in the assay with SHP-77 it was 300 to 1000 nM; in the assay on SK-N-AS it was below 300 nM. For the same compound, the EC50 with SK-N-FI is below 300 nM; in the assay on SNU-5, 300 to 1000 nM; with SW626 it was below 300 nM; in the assay on SW900, 300 to 1000 nM; in the assay with SW982, below 300 nM; in the assay with U-118 MG, below 300 nM. Further, in the assay with U-87 MG, the EC50 is below 300 nM.

For `CN(C)CC(=O)NCC(=O)N1C/C(=C\c2ccc(C#N)cc2)C(=O)/C(=C/c2ccc(C#N)cc2)C1` [Compound B1], the EC50 with HS-578T was 300 to 1000 nM; in the assay on KM-12, below 300 nM; in the assay with SN12C, below 300 nM; in the assay with MALME-3M, below 300 nM; with M14 it was below 300 nM; in the assay on MDA-MB-435, below 300 nM.

Source of the values: US20200399262A1, “COMPOUNDS FOR INHIBITING PROTEIN DEGRADATION AND METHODS OF USE THEREOF IN THE TREATMENT OF CANCER” (PI Therapeutics Ltd, priority 2018, published 2020).
